Literature values, collected in patent publication US20120015880A1 (priority 2008, published 2012).
Like-named read-outs stand apart in the source and are kept apart here.

Details: in vivo

Compound: NC(=O)CC[C@@H]1NC(=O)[C@H](Cc2ccccc2)NC(=O)[C@H](Cc2ccc(O)cc2)NC(=O)CCSSC[C@@H](C(=O)N2CCC[C@H]2C(=O)N[C@H](CCCN=C(N)N)C(=O)NCC(N)=O)NC(=O)[C@H](CC(N)=O)NC1=O [desmopressin, 1-desamino-8-D-arginine vasopressin]
- bioavailability (human): ~100%
- half life (human): ~1.5 h
- bioavailability (human, inhaled or intranasal): 3-5%
- range of Cmax between patients (human, inhaled or intranasal): 6-10 fold
- bioavailability (po): far less than one percent
